Earlier results, collected in the CATMoS acute toxicity set (Mansouri et al. 2021).
“And” between values parts separate entries of the source, which are not always exact repeats. Equal values may be shown once.

Test: rat acute oral toxicity
Settings: in vivo
Description: […]The data set underlying the modeling effort for this project was initially compiled by NICEATM and U.S. EPA’s CCTE. Briefly, LD50 data were collected from rat acute oral systemic toxicity tests, including limit tests, ranges/confidence intervals, and discrete LD50 values. The full data set included 21,200 LD50 entries for 15,688 substances. […] Data were reviewed to ensure that LD50 values with obvious errors in the extracted data such as unit conversion errors (e.g., comma and decimal separator misplacements) were either fixed or removed. After this review, 16,209 LD50 values remained. Many of the chemicals represented had multiple LD50 entries, requiring that a single representative value per Chemical Abstracts Service Registry Number (CASRN) identifier be defined to facilitate modeling efforts. Based on ATWG feedback and to define the representative LD50 as a protective value while accounting for the distribution across multiple LD50s, the median of the lowest quartile was computed using only discrete LD50 values (omitting limit test data and range and confidence interval data). A detailed summary of the data compilation is available online on the NICEATM webpage dedicated to the collaborative modeling project (NTP 2020).
[…][…] For categorical designations, limit test and range/confidence interval LD50 data were integrated wherever possible. As such, the number of chemicals with end point values/calls varies across the modeling end points (Table 3) based on whether chemicals had representative LD50 values and/or other data. If a chemical had both, the representative value was used to determine categorical calls rather than limit test data. Some data were useable only for certain end points and categories depending on the thresholds. For example, ranges that spanned multiple hazard categories were considered only for the binary (very toxic/nontoxic) end points and omitted from rendering a determination for hazard category assignment.
[…]The final data set comprising 11,992 chemicals was split into training and evaluation sets […], respectively. This process was performed semirandomly by ordering chemicals based on the five end points (categorical and continuous LD50 values) and partitioning every fourth record into the evaluation set accordingly. This approach was taken to ensure an equivalent distribution of the LD50 values and the different hazard categories between the training and the evaluation sets without supervised sampling of the chemicals based on structures (Figure 1A). The sources of the chemical structures were also kept equivalent between the two sets, with chemical structures obtained from DSSTox, being the highest quality, representing over 75% of each set (Figure 1B).

| Structure (SMILES) | LD50 |
| --- | --- |
| CC1CC(C)(O)CC(C(O)CC2CC(=O)NC(=O)C2)C1=O (configuration not stated) | 3 mg/kg |
| COC(=O)C=C1CCCC1 | 3360 mg/kg |
| C[C@@]12CCCCC[C@@H](Cc3ccc(O)cc31)[C@@H]2N | 243 mg/kg |
| OC[C@H]1O[C@@H](n2cnc3c(S)ncnc32)[C@H](O)[C@@H]1O | 900 mg/kg |
| Nc1c(Cl)cc(Cl)cc1C(=O)O | 4120 mg/kg |
| CN(C)c1nc2cc(Cl)ccc2o1 | 800 mg/kg |
| CC(=O)O[C@H]1C[C@H](O[C@H]2[C@@H](OC=O)C[C@H](O[C@H]3[C@@H](OC=O)C[C@H](O[C@H]4CC[C@@]5(C)[C@H](CC[C@@H]6[C@@H]5CC[C@]5(C)[C@@H](C7=CC(=O)OC7)[C@@H](OC=O)C[C@]65O)C4)O[C@@H]3C)O[C@@H]2C)O[C@H](C)[C@H]1OC=O | 39 mg/kg |
| C[Si]1(C)N[Si](C)(C)N[Si](C)(C)N[Si](C)(C)N1 | 100 mg/kg |
| COc1ccc2c(=O)c3ccccc3oc2c1CN1CCCCC1 | 183 mg/kg |
| CCOC(=O)c1c[n+](C)c2n(c1=O)C(C)CCC2 (configuration not stated) | 1500 mg/kg |
| O=C(O)CCCC(=O)O | 6000 mg/kg |
| COc1cc(OC)c(C(=O)CCCN2CCCC2)c(OC)c1 | 410 mg/kg |
| CCCCCCCC[N+](CC)(CC)CCOC(=O)C(C1CCCC1)C1CCCC1 | 1200 mg/kg |
| CCC(=O)C1(N2CCCCC2)CCN(CCCC(=O)c2ccc(F)cc2)CC1 | 780 mg/kg |
| O=[N+]([O-])C(Br)Br | 86 mg/kg |
| CCCCN(CCO)CCO | 4250 mg/kg |
| CN(C)CCOC(C)(c1ccccc1)c1ccc(Cl)cc1 (configuration not stated) | 1000 mg/kg |
| CCOP(=S)(OCC)SCC(=O)OC | 1000 mg/kg |
| N[C@@H](Cc1c[nH]c2ccc(O)cc12)C(=O)O | 243 mg/kg |
| O=C(O)c1ccccc1Nc1cc(Cl)ccc1C(=O)O | 1150 mg/kg |
| Oc1ccc2ccccc2c1 | 1960 mg/kg and 2120 mg/kg |
| CCN(CC)C(=S)N/N=C/c1ccc([N+](=O)[O-])o1 | 750 mg/kg |
| O=C(OCC1CO1)c1ccccc1C(=O)OCC1CO1 (configuration not stated) | 1240 mg/kg |
| CN(C)CCCNC1=C2C(=CC=CC2[N+](=O)[O-])N(O)c2ccccc21 (configuration not stated) | 110 mg/kg |

| Structure (SMILES) | LD50 |
| --- | --- |
| CC(C)(C)c1cc(C(=O)O)cc(C(C)(C)C)c1O | 1410 mg/kg |
| NC(=O)C1c2ccccc2CCc2ccccc21 | 2400 mg/kg |
| COc1ccc2cc([C@H](C)C(=O)OCCN3CCN(Cc4ccc(N)cc4)CC3)ccc2c1 | 1600 mg/kg |
| CCN(CC)c1ccc(N)c(C)c1 | 200 mg/kg |
| O=[N+]([O-])c1cc(Br)cc2[nH]c(C(F)(F)F)nc12 | 1.23 mg/kg |
| COc1ccc2c(c1)c(CC(=O)Oc1ccc(NC(C)=O)cc1)c(C)n2C(=O)c1ccc(Cl)cc1 | 887 mg/kg |
| COP(=S)(OC)SCOC(C)=O | 93 mg/kg |
| OC[C@@H](O)CN1CCN(c2ccccc2)CC1 | 887 mg/kg |
| CC(O)CC=O (configuration not stated) | 2180 mg/kg |
| C=C(C)C1CC=C(CO)CC1 (configuration not stated) | 2100 mg/kg |
| CC(C)N(Cc1ccccc1)C(=O)C(C)(C)C | 6000 mg/kg |
| CCN(CCNC(=O)SCC(C)C)C(=O)SCC(C)C | 2710 mg/kg |
| CC(CC(=O)O)CC(C)(C)C (configuration not stated) | 1160 mg/kg |
| CC[Se][Se]CC | 90 mg/kg |
| COC(=O)C(C)Oc1ccc(Oc2ncc(C(F)(F)F)cc2Cl)cc1 (configuration not stated) | 393 mg/kg |
| CCCCO[Si](OCCCC)(OCCCC)N(C)C1CCCCC1 | 3550 mg/kg |
| CCOC(=O)c1c(C)cc2nc(COC(=O)NC)n(-c3ccccc3Cl)c(=O)c2c1C | 2500 mg/kg |
| Cn1c2c(c3ccccc31)CCN(CCCN1CCN(c3ccccc3)CC1)C2=O | 650 mg/kg |
| S=c1[nH]cnc2[nH]cnc12 | 277 mg/kg |
| N#CC(N=Nc1ccc(C(F)(F)F)cc1)=NNc1ccc(C(F)(F)F)cc1 | 613 mg/kg |
| CC1(C)S[C@@H]2[C@H](NC(=O)C(C(=O)O)c3ccsc3)C(=O)N2[C@H]1C(=O)O (some centres not stated) | 16000 mg/kg |
| Fc1cccc(C(F)(F)F)n1 | 50 mg/kg |
| COP(=O)(OC)C(O)(C(F)F)C(F)F | 9 mg/kg |
